According to patent US8124647B2 (priority 2002, dated 2012):

Key:
[1] = target: T1, human androgen receptor (Homo sapiens, UniProt P10275); assay: androgenic activity (EC50 and intrinsic activity), transactivation bioassay in CHO-AR-pMMTV-LUC cells (Table 4); type: cell-based
T1 construct: expressed in transfected cells; host or cells: CHO cells, cell line CHO-AR-pMMTV-LUC 1G12-A5-CA
T1 sequence (P10275 1-920): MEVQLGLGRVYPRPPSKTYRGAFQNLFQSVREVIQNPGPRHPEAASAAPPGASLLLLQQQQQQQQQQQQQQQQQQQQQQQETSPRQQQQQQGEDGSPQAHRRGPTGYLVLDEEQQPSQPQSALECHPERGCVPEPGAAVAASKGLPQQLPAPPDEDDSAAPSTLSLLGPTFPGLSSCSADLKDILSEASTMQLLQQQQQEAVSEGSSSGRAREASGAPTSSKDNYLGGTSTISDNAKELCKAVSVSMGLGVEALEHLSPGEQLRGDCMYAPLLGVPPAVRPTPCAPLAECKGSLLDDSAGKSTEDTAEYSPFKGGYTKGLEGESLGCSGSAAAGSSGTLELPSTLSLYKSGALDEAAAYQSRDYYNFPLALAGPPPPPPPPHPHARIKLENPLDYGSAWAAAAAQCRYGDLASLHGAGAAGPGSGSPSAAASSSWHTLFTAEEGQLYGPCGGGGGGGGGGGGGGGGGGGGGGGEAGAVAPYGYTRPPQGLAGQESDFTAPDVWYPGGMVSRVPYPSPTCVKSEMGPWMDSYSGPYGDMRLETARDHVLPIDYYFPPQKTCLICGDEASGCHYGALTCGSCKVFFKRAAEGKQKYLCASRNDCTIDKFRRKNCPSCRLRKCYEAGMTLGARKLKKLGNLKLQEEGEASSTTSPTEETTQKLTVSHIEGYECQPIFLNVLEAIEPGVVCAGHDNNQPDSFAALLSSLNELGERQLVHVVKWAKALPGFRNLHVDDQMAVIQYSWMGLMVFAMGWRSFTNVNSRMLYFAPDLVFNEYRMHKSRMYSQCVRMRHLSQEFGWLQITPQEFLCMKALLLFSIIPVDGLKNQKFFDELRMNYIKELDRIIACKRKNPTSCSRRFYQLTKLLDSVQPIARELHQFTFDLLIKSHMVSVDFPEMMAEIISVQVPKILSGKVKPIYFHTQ
Description: (§1) Compounds were tested for their Androgen Receptor activity in a transactivation assay and in a binding assay.
(§2) The (anti-)androgenic activity of test compounds (EC50 and intrinsic activity) was determined in an in vitro bioassay of Chinese hamster ovary (CHO) cells stably transfected with the human androgen receptor expression plasmid and a reporter plasmid in which the MMTV-promoter is linked to the luciferase reporter gene. The cell-line CHO-AR-pMMTV-LUC 1G12-A5-CA is described in Schoonen et al. (2000), Journal of Steroid Biochemistry and Molecular Biology 74(4):213-222. The antiandrogenic activity of a test compound was determined by the inhibition of the transactivation via the androgen receptor of the enzyme luciferase in the presence of 1 nM DHT (5α-dihydrotestosterone, 17β-hydroxy-5α-androstan-3-one). Intrinsic activity of antiandrogenic activity was determined in the presence of the reference antiandrogen 2-Hydroxy-2-methyl-N-(4-nitro-3-trifluoromethyl-phenyl)-propionamide(Hydroxyflutamide), and set at 100%. For androgenic activity, maximal intrinsic activity in the presence of 100 nM DHT was set at 100%.

[2] = target: T1, human androgen receptor; assay: cell-based; settings: in the presence of 1 nM DHT
Description: as §1, §2

[3] = androgenic activity, read-out: ago EC50
[4] = antiandrogenic activity, read-out: ant EC50

Row | SMILES | EC50 [1, 3] [nM] | EC50 [2, 4] [nM] | EC50 ([1]; ago EC50, androgenic activity) [nM] | EC50 ([2]; ant EC50, antiandrogenic activity) [nM] | ant efficacy ([2]; reference antiandrogen Hydroxyflutamide set at 100%)
1 | COc1ccc2c(Sc3ccccc3[N+](=O)[O-])cn(Cc3cc(F)ccc3F)c2c1 [Compound 1] | 5 to 100 | > 10000 | – | – | –
2 | COc1ccc2c(Sc3ccccc3[N+](=O)[O-])cn(Cc3cccc(C)c3F)c2c1 [Compound 2] | < 1000 | > 10000 | – | – | –
3 | COc1ccc2c(Sc3ccccc3[N+](=O)[O-])cn(Cc3ccccc3Cl)c2c1 [Compound 3] | < 1000 | > 10000 | – | – | –
4 | COc1ccc2c(Sc3ccccc3[N+](=O)[O-])cn(Cc3ccccc3C#N)c2c1 [Compound 4] | < 1000 | 5 to 100 | – | – | –
5 | COc1ccc2c(Sc3ccccc3[N+](=O)[O-])cn(Cc3ccccc3F)c2c1 [Compound 5] | < 1000 | > 10000 | – | – | –
6 | COc1ccc2c(Sc3ccccc3[N+](=O)[O-])cn(Cc3cccc([N+](=O)[O-])c3C)c2c1 [Compound 6] | – | > 10000 | < 1000 | – | –
7 | COc1ccc2c(Sc3ccccc3[N+](=O)[O-])cn(Cc3ccccc3C)c2c1 [Compound 7] | 5 to 100 | > 10000 | – | – | –
8 | COc1ccc2c(Sc3ccccc3[N+](=O)[O-])cn(Cc3ccccc3[N+](=O)[O-])c2c1 [Compound 8] | – | – | 5 to 100 | > 10000 | –
9 | COc1ccc2c(Sc3ccccc3[N+](=O)[O-])cn(Cc3ccccn3)c2c1 [Compound 9, 6-Methoxy-3-(2-nitro-phenylsulfanyl)-1-pyridin-2-ylmethyl-1H-indole] | < 5 | < 5 | – | – | –
10 | COc1ccc2c(Sc3ccccc3[N+](=O)[O-])cn(Cc3ccccn3)c2c1.Cl [Compound 10, 6-Methoxy-3-(2-nitro-phenylsulfanyl)-1-pyridin-2-ylmethyl-1H-indole monohydrochloride] | 5 to 100 | > 10000 | – | – | − (− <0.20)
11 | COc1ccc2c(Sc3ccccc3[N+](=O)[O-])cn(CC3CCCCO3)c2c1 (centres unmarked) [Compound 11] | 5 to 100 | > 10000 | – | – | –
12 | COc1ccc2c(Sc3ccccc3[N+](=O)[O-])cn(Cc3ccccc3C(F)(F)F)c2c1 [Compound 12] | < 1000 | > 10000 | – | – | –
13 | COc1ccc2c(Sc3ccccc3[N+](=O)[O-])cn(Cc3cc(C)on3)c2c1 [Compound 13] | < 1000 | > 10000 | – | – | –
14 | COc1ccc2c(Sc3ccccc3[N+](=O)[O-])cn(Cc3ccc(Cl)c(Cl)c3)c2c1 [Compound 14] | < 1000 | > 10000 | – | – | –
15 | COc1ccc2c(Sc3ccccc3[N+](=O)[O-])cn(Cc3cc(Cl)cc(Cl)c3)c2c1 [Compound 15] | 5 to 100 | > 10000 | – | – | –
16 | COc1ccc2c(Sc3ccccc3CO)cn(Cc3cc(F)cc(F)c3)c2c1 [Compound 16, {2-[1-(3,5-Difluoro-benzyl)-6-methoxy-1H-indol-3-ylsulfanyl]-phenyl}-methanol] | 5 to 100 | 5 to 100 | – | – | –
17 | CNC(=O)c1ccccc1Sc1cn(Cc2cc(F)cc(F)c2)c2cc(OC)ccc12 [Compound 17, 2-[1-(3,5-Difluoro-benzyl)-6-methoxy-1H-indol-3-ylsulfanyl]-N-methyl-benzamide] | > 10000 | < 1000 | – | – | –
18 | COc1ccc2c(Sc3ccccc3C(N)=O)cn(Cc3cc(F)cc(F)c3)c2c1 [Compound 18, 2-[1-(3,5-Difluoro-benzyl)-6-methoxy-1H-indol-3-ylsulfanyl]-benzamide] | 5 to 100 | 5 to 100 | – | – | –
19 | COC(=O)c1ccccc1Sc1cn(Cc2cc(F)cc(F)c2)c2cc(OC)ccc12 [Compound 19, 2-[1-(3,5-Difluoro-benzyl)-6-methoxy-1H-indol-3-ylsulfanyl]-benzoic acid methyl ester] | < 1000 | > 10000 | – | – | –
20 | O=[N+]([O-])c1ccccc1Sc1cn(Cc2cc(F)cc(F)c2)c2ccc(O)cc12 [Compound 56] | < 5 | – | – | – | –
21 | O=[N+]([O-])c1ccccc1Sc1cn(Cc2cc(F)cc(F)c2)c2cc(O)ccc12 [Compound 61, 1-(3,5-Difluoro-benzyl)-3-(2-nitro-phenylsulfanyl)-1H-indol-6-ol] | < 5 | – | – | – | –
